The values that follow come from ChEMBL document CHEMBL3044716, “Discovery of imidacloprid and further developments from strategic molecular designs” (J Agric Food Chem, 2011).

For series [1], the system named is Nephotettix cincticeps. Description: Insecticidal activity against Nephotettix cincticeps (green rice leafhopper) assessed as mortality measured after 4 days. It counts as functional.
Another series deals with Spodoptera litura. Description: Insecticidal activity against Spodoptera litura (tobacco cutworm) assessed as mortality measured as LC90. It counts as functional.
Series [2] in a line: Photolysis of the compound assessed as half life at 30 degC by 250 W sun lamp. The format is physicochemical.
The test system of series [3] is Nephotettix cincticeps. Description: Insecticidal activity against Nephotettix cincticeps (green rice leafhopper) in rice plant assessed as mortality at 100 mg/L insects released after 7 days of compound treatment measured after 72 hr of insect release (reference value: 0%). It counts as functional.
Series [4] relates to Myzus persicae. Briefly: Insecticidal activity against Myzus persicae (green peach aphid) in cabbage plant assessed as mortality at 100 mg/L insects released after 7 days of compound treatment measured after 72 hr of insect release (reference value: 10 +/- 3%). It counts as functional.
Series [5] deals with Nephotettix cincticeps. Description: Insecticidal activity against Nephotettix cincticeps (green rice leafhopper) in rice plant assessed as mortality at 100 mg/L insects released after 14 days of compound treatment measured after 24 hr of insect release. It counts as functional.
Series [6] deals with Nephotettix cincticeps. Briefly: Insecticidal activity against Nephotettix cincticeps (green rice leafhopper) in rice plant assessed as mortality at 100 mg/L insects released after 3 days of compound treatment measured after 72 hr of insect release (reference value: 0%). It counts as functional.
Series [7] relates to Nephotettix cincticeps. Briefly: Insecticidal activity against Nephotettix cincticeps (green rice leafhopper) in rice plant assessed as mortality at 100 mg/L insects released after 7 days of compound treatment measured after 48 hr of insect release. It counts as functional.
The subject of series [8] is Nephotettix cincticeps. Briefly: Insecticidal activity against Nephotettix cincticeps (green rice leafhopper) in rice plant assessed as mortality at 100 mg/L insects released after 14 days of compound treatment measured after 48 hr of insect release. It counts as functional.
Series [9] deals with Nephotettix cincticeps. Briefly: Insecticidal activity against Nephotettix cincticeps (green rice leafhopper) in rice plant assessed as mortality at 100 mg/L insects released after 3 days of compound treatment measured after 24 hr of insect release. It counts as functional.
The subject of series [10] is Nephotettix cincticeps. Description: Insecticidal activity against Nephotettix cincticeps (green rice leafhopper) in rice plant assessed as mortality at 100 mg/L insects released after 3 days of compound treatment measured after 48 hr of insect release. It counts as functional.
For series [11], the system named is Nephotettix cincticeps. Briefly: Insecticidal activity against Nephotettix cincticeps (green rice leafhopper) in rice plant assessed as mortality at 100 mg/L insects released after 7 days of compound treatment measured after 24 hr of insect release. The format is functional.
The subject of series [12] is Myzus persicae. Description: Insecticidal activity against Myzus persicae (green peach aphid) in cabbage plant assessed as mortality at 100 mg/L insects released after 14 days of compound treatment measured after 72 hr of insect release (reference value: 0%). It counts as functional.
Series [13] has as its system Myzus persicae. Briefly: Insecticidal activity against Myzus persicae (green peach aphid) in cabbage plant assessed as mortality at 100 mg/L insects released after 3 days of compound treatment measured after 72 hr of insect release (reference value: 14 +/- 4%). It counts as functional.
The subject of series [14] is Nephotettix cincticeps. Description: Insecticidal activity against Nephotettix cincticeps (green rice leafhopper) in rice plant assessed as mortality at 100 mg/L insects released after 14 days of compound treatment measured after 72 hr of insect release (reference value: 0%). It counts as functional.

One may read the half-life as how long it takes for the measured level to halve. By mortality is commonly meant the share of the test organisms that died.

Active and inactive are the calls of the source. No cut-off for these calls is given here.

With `C=CCN1CCN(Cc2ccc(Cl)nc2)/C1=N/[N+](=O)[O-]`, the LC90 with Nephotettix cincticeps [1] was found to be 0.32 ppm. Same read-out and setting: in the case of `CCN1CCN(Cc2ccc(Cl)nc2)/C1=N/[N+](=O)[O-]` it was 8 ppm; in that of `O=C1NCCN1Cc1ccc(Cl)nc1`, 1000 ppm. The same measure, in the same setting: with `Cc1ccc(CN2CCN/C2=C\[N+](=O)[O-])cn1` the figure was 1.6 ppm. Consider `O=[N+]([O-])/C=C1\NCCN1Cc1ccc(Cl)cc1`, for which the LC90 in the series on Spodoptera litura is recorded as 500 ppm; in the series on Nephotettix cincticeps [1], 40 ppm. Regarding `O=[N+]([O-])/C=C1\NCCN1Cc1cnc2ccccc2c1`, in the series on Nephotettix cincticeps [1], the LC90 entry is “inactive”. Still for that read-out and setting: with `O=[N+]([O-])/C=C1\NCCN1CCc1ccccc1` the entry was “inactive”.

Turning to `O=[N+]([O-])/C=C1\NCCCCCN1Cc1ccccc1`, the LC90 in the series on Nephotettix cincticeps [1] was 1000 ppm. Still for that read-out and setting: in the case of `O=[N+]([O-])/C=C1\NCCCCN1Cc1ccccc1` it was 1000 ppm.

For `N#C/C=C1\NCCN1Cc1ccc(Cl)nc1`, the LC90 entry in the series on Nephotettix cincticeps [1] is “inactive”.

With `COc1ccc(CN2CCN/C2=C\[N+](=O)[O-])cn1`, the LC90 in the series on Nephotettix cincticeps [1] is 200 ppm. With `N#Cc1cccc(CN2CCN/C2=C\[N+](=O)[O-])c1`, the LC90 with Nephotettix cincticeps [1] was 40 ppm.

Take `CN/C(=C\[N+](=O)[O-])NCc1ccccc1`: in the series on Nephotettix cincticeps [1], the LC90 result is “inactive”. Consider `N=C1NCCN1Cc1ccc(Cl)nc1` [DESNITROIMIDACLOPRID], for which the LC90 with Nephotettix cincticeps [1] was 1000 ppm.

For the compound `Cc1ccc(CN2CCN/C2=C\[N+](=O)[O-])cc1`, the LC90 with Nephotettix cincticeps [1] worked out at 200 ppm. Take `O=[N+]([O-])/C=C1\NCCN1Cc1cccnc1`: in the series on Nephotettix cincticeps [1], the LC90 came to 8 ppm. As to `O=[N+]([O-])/C=C1\NCCN1CC1CCCO1` (centres undefined), in the series with Nephotettix cincticeps [1], the LC90 amounted to 500 ppm. On the same count and under the same terms, in the case of `O=[N+]([O-])/C=C1\NCCN1Cc1cnco1` it was 40 ppm; in that of `CCCCN1CCN(Cc2ccc(Cl)nc2)/C1=N/[N+](=O)[O-]`, 1.6 ppm; in that of `CN1CCN(Cc2ccc(Cl)nc2)/C1=N/[N+](=O)[O-]`, 1.6 ppm. As to `O=[N+]([O-])C=C1NCCCS1`, the LC90 with Spodoptera litura is below 40 ppm; in the series on Nephotettix cincticeps [1] it was 40 ppm. In addition, the half-life in series [2] was 0.5 h. As to `O=[N+]([O-])/C=C1\NCCN1Cc1ccc(Cl)nc1`, in the series with Nephotettix cincticeps [1], the LC90 is listed as 0.32 ppm. Further, the half-life in series [2] was 1 h.

As for `O=[N+]([O-])/C=C1\NCCN1c1ccccc1`, the LC90 in the series on Nephotettix cincticeps [1] amounted to 1000 ppm. Same read-out and setting: with `O=[N+]([O-])/C=C1\NCCN1Cc1ccco1` the figure was 200 ppm; with `N#CC(C#N)=C1NCCN1Cc1ccc(Cl)nc1`, 40 ppm; with `O=[N+]([O-])/C=C1\NCCN1Cc1ccn[nH]1`, 200 ppm. The same measure, in the same setting: with `CN1CCN/C1=C\[N+](=O)[O-]` the figure was 1000 ppm. With `O=[N+]([O-])/C=C1\SCCN1Cc1ccc(Cl)nc1`, the half-life in series [2] was below 0.5 h. For `CCOC(=O)/N=C1\NCCN1Cc1ccc(Cl)nc1`, the LC90 with Nephotettix cincticeps [1] is listed as 40 ppm. Same read-out and setting: in the case of `O=[N+]([O-])/C=C1\NCCN1Cc1ccccc1Cl` it was “inactive”; in that of `O=[N+]([O-])/C=C1\NCCN1Cc1ccccc1`, 200 ppm; in that of `O=[N+]([O-])/C=C1\NCCN1Cc1ccccn1`, 200 ppm. Consider `O=[N+]([O-])/C=C1\NCCN1Cc1ccc[nH]1`, for which, in the series on Nephotettix cincticeps [1], the LC90 turned out to be 200 ppm. On the same count and under the same terms, with `O=[N+]([O-])/C=C1\NCCN1Cc1ccncc1` the figure was 8 ppm; with `CCCCCN1CCN(Cc2ccc(Cl)nc2)/C1=N/[N+](=O)[O-]`, 20 ppm. The same measure, in the same setting: in the case of `O=[N+]([O-])/C=C1\NCCN1Cc1cncc(Cl)c1` it was 40 ppm; in that of `CCCN1CCN(Cc2ccc(Cl)nc2)/C1=N/[N+](=O)[O-]`, 0.32 ppm; in that of `O=[N+]([O-])C=C1NCCN1` [2-(NITROMETHYLENE)IMIDAZOLIDINE], 1000 ppm. On the same count and under the same terms, in the case of `CS(=O)(=O)/N=C1\NCCN1Cc1ccc(Cl)nc1` it was 40 ppm; in that of `O=[N+]([O-])/C=C1\NCCN1Cc1ccc(F)nc1`, 0.32 ppm; in that of `CC(C)N1CCN(Cc2ccc(Cl)nc2)/C1=N/[N+](=O)[O-]`, 40 ppm.

As to `O=[N+]([O-])/C=C1\NCCN1C1CCCCC1`, in the series with Nephotettix cincticeps [1], the LC90 came out at 1000 ppm. As to `O=[N+]([O-])/C=C1\NCCCN1Cc1ccc(Cl)nc1`, the half-life in series [2] is 2 h. For the compound `COc1ccc(CN2CCN/C2=C\[N+](=O)[O-])cc1`, the LC90 in the series on Nephotettix cincticeps [1] came out at 200 ppm.

On to `O=[N+]([O-])/C=C1\NCCN1Cc1ccc([N+](=O)[O-])cc1`, for which, in the series with Nephotettix cincticeps [1], the LC90 was determined as 200 ppm.

As to `CCOC(=O)/C=C1\NCCN1Cc1ccc(Cl)nc1`, the LC90 result in the series with Nephotettix cincticeps [1] is “inactive”. On the same count and under the same terms, in the case of `CCCCCCN1CCN(Cc2ccc(Cl)nc2)/C1=N/[N+](=O)[O-]` it was 40 ppm; in that of `CC(=O)Nc1ccc(CN2CCN/C2=C\[N+](=O)[O-])cn1`, 1000 ppm. For the compound `O=[N+]([O-])/N=C1/N(CCCCCCN2CCN(Cc3ccc(Cl)nc3)/C2=N/[N+](=O)[O-])CCN1Cc1ccc(Cl)nc1` [Hexamethylene 1,6-bis-imadacloprid], the mortality in the series on Nephotettix cincticeps [3] worked out at 94%; with Myzus persicae [4], 55%; in the series with Nephotettix cincticeps [5], 60%; with Nephotettix cincticeps [6] it was 89%; with Nephotettix cincticeps [7], 94%; in the series on Nephotettix cincticeps [8] it was 100%. In addition, the mortality in the series on Nephotettix cincticeps [9] was 56%; in the series on Nephotettix cincticeps [10], 78%; in the series on Nephotettix cincticeps [11] it was 59%; in the series with Myzus persicae [12], 50%; with Myzus persicae [13], 83%; in the series with Nephotettix cincticeps [14] it was 100%.

Regarding `O=[N+]([O-])/C=C1\NCCN1Cc1cncs1`, in the series with Nephotettix cincticeps [1], the LC90 is given as 8 ppm. For `O=[N+]([O-])/C=C1\NCCN1Cc1cccc(Cl)c1`, in the series on Nephotettix cincticeps [1], the LC90 is 200 ppm. Still for that read-out and setting: in the case of `O=[N+]([O-])/C=C1\NCCN1Cc1cccnc1Cl` it was 200 ppm. Regarding `N#C/N=C1\NCCN1Cc1ccc(Cl)nc1`, the LC90 with Nephotettix cincticeps [1] worked out at 0.32 ppm. Also, the half-life in [2] is above 24 h. In the case of `O=[N+]([O-])/C=C1\NCCN1Cc1cnccn1`, in the series with Nephotettix cincticeps [1], the LC90 amounted to 8 ppm. With `N#Cc1ccc(CN2CCN/C2=C\[N+](=O)[O-])cn1`, the LC90 with Nephotettix cincticeps [1] is given as 200 ppm.

Regarding `O=[N+]([O-])/C=C1\NCCN1Cc1ccsc1`, the LC90 with Nephotettix cincticeps [1] was determined as 200 ppm. In the case of `CSc1ccc(CN2CCN/C2=C\[N+](=O)[O-])cn1`, in the series with Nephotettix cincticeps [1], the LC90 is 1000 ppm. For `O=[N+]([O-])/C=C1\NCCN1Cc1cncnc1`, the LC90 in the series on Nephotettix cincticeps [1] is 8 ppm.

On to `O=[N+]([O-])/C=C1\NCCCN1Cc1ccccc1`, for which the LC90 in the series with Nephotettix cincticeps [1] was above 200 ppm.

Turning to `O=[N+]([O-])/N=C1\NCCCN1Cc1ccc(Cl)nc1`, the half-life in [2] is 3.5 h. `O=[N+]([O-])/C=C1\NCCN1Cc1ccc(Br)nc1`: the LC90 in the series with Nephotettix cincticeps [1] was 1.6 ppm. `O=[N+]([O-])/N=C1/N(CCCCCCCN2CCN(Cc3ccc(Cl)nc3)/C2=N/[N+](=O)[O-])CCN1Cc1ccc(Cl)nc1` [Heptamethylene 1,7-bis-imadacloprid]: the mortality with Nephotettix cincticeps [3], in the series on Myzus persicae [4], in the series with Nephotettix cincticeps [5], with Nephotettix cincticeps [6], with Nephotettix cincticeps [7] and in the series with Nephotettix cincticeps [8] was 100% each time. The mortality in the series with Nephotettix cincticeps [9] was 13%; in the series on Nephotettix cincticeps [10], 40%; in the series on Nephotettix cincticeps [11], 83%; in the series on Myzus persicae [12], 100%; in the series with Myzus persicae [13] it was 100%; in the series with Nephotettix cincticeps [14] it was 100%. For `O=[N+]([O-])N=C1N(Cc2ccc(Cl)nc2)CCN1Cc1ccc(Cl)nc1`, in the series with Nephotettix cincticeps [1], the LC90 came to 1.6 ppm. For the compound `O=[N+]([O-])/C=C1\NCCN1Cc1cccs1`, the LC90 in the series on Nephotettix cincticeps [1] came out at 200 ppm. Regarding `O=[N+]([O-])/N=C1\NCCN1Cc1ccc(Cl)nc1` [IMIDACLOPRID], the mortality with Nephotettix cincticeps [3] stood at 100%; in the series with Nephotettix cincticeps [5], 95%; in the series with Nephotettix cincticeps [6], 100%; in the series on Nephotettix cincticeps [7], 100%; in the series on Nephotettix cincticeps [8], 100%; in the series with Nephotettix cincticeps [9], 47%. Besides, the mortality in the series with Nephotettix cincticeps [10] came out at 80%; with Nephotettix cincticeps [11], 89%; with Nephotettix cincticeps [14], 100%. Further, the LC90 with Nephotettix cincticeps [1] is reported as below 0.32 ppm. For the same compound, in [2], the half-life was 3 h. Consider `O=[N+]([O-])/C=C1\NCCN1Cc1ccc(C(F)(F)F)nc1`, for which the LC90 in the series on Nephotettix cincticeps [1] amounted to 8 ppm. On to `O=[N+]([O-])/C=C1\NCCN1Cc1ccncn1`, for which the LC90 in the series on Nephotettix cincticeps [1] was 40 ppm.
